“And” between values parts separate entries of the source, which are not always exact repeats. Equal entries are not always repeated. Toxic doses and inconclusive results are not listed.

For this test, the system named is CD2F1 mice, L1210 leukemia ip, survival T/C. Put plainly: NCI In Vivo Anticancer Drug Screen. Data for tumor model L1210 Leukemia (intraperitoneal) in CD2F1 (CDF1) mice. Conditions: endpoint: mean survival time, higher = longer survival. In a few lines: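 Tumor-bearing mice (transplanted tumor) were split into treated and vehicle control groups, and the measured endpoint of each treated group was divided by that of its vehicle controls.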

[1] abbreviates: dose: 100.0 mg/kg/injection, schedule: Q01DX001 (ip), vehicle: saline with Tween-80.
Setting [2] is: dose: 200.0 mg/kg/injection, schedule: Q01DX001 (ip), vehicle: saline with Tween-80.
Setting [3] is: dose: 400.0 mg/kg/injection, schedule: Q01DX001 (ip), vehicle: saline with Tween-80.
[4] abbreviates: dose: 100.0 mg/kg/injection, schedule: Q04DX003 (ip), vehicle: saline.
Setting [5] is: dose: 200.0 mg/kg/injection, schedule: Q04DX003 (ip), vehicle: saline.
The mark [6] stands for this setting: dose: 400.0 mg/kg/injection, schedule: Q04DX003 (ip), vehicle: saline.
[7] abbreviates: dose: 50.0 mg/kg/injection, schedule: Q01DX009 (ip), vehicle: saline with Tween-80.
The mark [8] stands for this setting: dose: 100.0 mg/kg/injection, schedule: Q01DX009 (ip), vehicle: saline with Tween-80.
Setting [9] is: dose: 200.0 mg/kg/injection, schedule: Q01DX009 (ip), vehicle: saline with Tween-80.
The mark [10] stands for this setting: dose: 100.0 mg/kg/injection, schedule: Q04DX002 (ip), vehicle: saline with Tween-80.
Setting [11] is: dose: 200.0 mg/kg/injection, schedule: Q04DX002 (ip), vehicle: saline with Tween-80.
[12] abbreviates: dose: 400.0 mg/kg/injection, schedule: Q04DX002 (ip), vehicle: saline with Tween-80.
Setting [13] is: dose: 100.0 mg/kg/injection, schedule: Q04DX003 (ip), vehicle: saline with Tween-80.
[14] abbreviates: dose: 200.0 mg/kg/injection, schedule: Q04DX003 (ip), vehicle: saline with Tween-80.
The mark [15] stands for this setting: dose: 400.0 mg/kg/injection, schedule: Q01DX009 (ip), vehicle: saline with Tween-80.
Setting [16] is: dose: 400.0 mg/kg/injection, schedule: Q04DX003 (ip), vehicle: saline with Tween-80.
Setting [17] is: dose: 100.0 mg/kg/injection, schedule: Q01DX001 (ip), vehicle: saline.
The mark [18] stands for this setting: dose: 200.0 mg/kg/injection, schedule: Q01DX001 (ip), vehicle: saline.
Setting [19] is: dose: 400.0 mg/kg/injection, schedule: Q01DX001 (ip), vehicle: saline.

For `Cc1nc(N)[nH]c(=O)c1NC(=O)c1ccccc1N`, the T/C reads like this: under setting [1], 94 % of control; under setting [2], 87 % of control; under setting [3], 89 % of control.

As for `NC(=O)c1ncc(-c2ccccc2)[nH]c1=O`, the T/C under setting [4] is 93 % of control, the T/C under setting [5] was 98 % of control and the T/C under setting [6] is 102 % of control.

With `Cc1nc2c(n1C)C(=O)c1ccccc1C2=O`, the T/C under setting [4] was 101 % of control.

For `c1ccc2c(c1)ncc1cc3c(cc12)[nH]c1ccccc13`, the T/C by setting is: (dose: 100.0 mg/kg/injection, schedule: Q01DX001 (ip), vehicle: other) 96 % of control; (dose: 200.0 mg/kg/injection, schedule: Q01DX001 (ip), vehicle: other) 101 % of control; (dose: 400.0 mg/kg/injection, schedule: Q01DX001 (ip), vehicle: other) 104 % of control.

For the compound `Cc1ccc(NC(=O)NC(C)C)c(C)c1`, the T/C reads like this: (dose: 6.25 mg/kg/injection, schedule: Q01DX009 (ip), vehicle: saline with Tween-80) 97 % of control; (dose: 12.5 mg/kg/injection, schedule: Q01DX009 (ip), vehicle: saline with Tween-80) 100 % of control; (dose: 25.0 mg/kg/injection, schedule: Q01DX009 (ip), vehicle: saline with Tween-80) 97 % of control.

On to `Cc1cn(C2CCC(CO)C2)c(=O)[nH]c1=O` (configuration not stated), for which the T/C by setting is: (dose: 100.0 mg/kg/injection, schedule: Q01DX001 (ip), vehicle: carboxymethylcellulose (CMC)) 95 % of control; (dose: 200.0 mg/kg/injection, schedule: Q01DX001 (ip), vehicle: carboxymethylcellulose (CMC)) 95 % of control; (dose: 400.0 mg/kg/injection, schedule: Q01DX001 (ip), vehicle: carboxymethylcellulose (CMC)) 103 % of control.

Regarding `COc1ccccc1NC(=S)N(C)C`, the T/C is, setting by setting: under setting [7], 98 % of control; under setting [8], 101 % of control; under setting [9], 98 % of control.

In the case of `Cc1cc(C(O)c2ccccn2)c2cc(Cl)cc(Cl)c2n1` (configuration not stated), the T/C is 97 % of control under setting [10], 102 % of control under setting [11] and 97 % of control under setting [12].

Consider `Nc1cc(Cl)c(Cl)cc1Cl`, for which the T/C reads like this: under setting [7], 93 % of control; under setting [8], 106 % of control; under setting [13], 100 % of control; under setting [9], 95 % of control; under setting [14], 94 % of control; under setting [15], 108 % of control.

In the case of `Nc1ccc(N2CCNCC2)cc1`, the T/C under setting [13] is 104 % of control and the T/C under setting [14] was 101 % of control.

For the compound `COc1cc(C2C3CN(C4CCCCC4)C(=O)C3NN2C(C)=O)ccc1OC(C)=O` (configuration not stated), the T/C runs as follows: under setting [8], 93 % of control; under setting [9], 95 % of control; under setting [15], 95 % of control.

As to `CCCCCCCCCCS(=O)CC(CO)NC(=O)/C=C/c1c(C)[nH]c(=O)[nH]c1=O` (configuration not stated), the T/C is 102 % of control and 106 % of control (dose: 0.37 mg/kg/injection, schedule: Q01DX009 (ip), vehicle: distilled water + Tween-80); 110 % of control and 111 % of control (dose: 0.75 mg/kg/injection, schedule: Q01DX009 (ip), vehicle: distilled water + Tween-80); 113 % of control and 101 % of control (dose: 1.5 mg/kg/injection, schedule: Q01DX009 (ip), vehicle: distilled water + Tween-80); 114 % of control and 117 % of control (dose: 3.0 mg/kg/injection, schedule: Q01DX009 (ip), vehicle: distilled water + Tween-80); 117 % of control (dose: 6.0 mg/kg/injection, schedule: Q01DX009 (ip), vehicle: distilled water + Tween-80); 89 % of control and 96 % of control (dose: 12.0 mg/kg/injection, schedule: Q01DX009 (ip), vehicle: distilled water + Tween-80).

Take `O=C(O)/C=C/SCCC(=O)O`: the T/C reads like this: under setting [13], 93 % of control and 101 % of control; under setting [14], 101 % of control and 94 % of control.

Turning to `CCCCOc1ccc(/C=N\N=C\c2ccc(OCCCC)cc2)cc1`, the T/C under setting [13] is 88 % of control, the T/C under setting [14] is 91 % of control and the T/C under setting [16] was 86 % of control.

With `CCSc1ncnc2c1ncn2C1OC(CO)C(O)C1O` (configuration not stated), the T/C by setting is: (dose: 132.0 mg/kg/injection, schedule: Q04DX003 (ip), vehicle: saline with Tween-80) 122 % of control; under setting [9], 171 % of control.

Turning to `C=COCCSCC`, the T/C was 98 % of control (dose: 50.0 mg/kg/injection, schedule: Q04DX003 (ip), vehicle: saline); 98 % of control under setting [17]; 98 % of control under setting [4]; 97 % of control under setting [18]; 104 % of control under setting [5]; 101 % of control under setting [19].

With `CC1=CC(=O)C(C(=O)CC(O)(C(F)(F)F)C(F)(F)F)C(=O)O1` (configuration not stated), the T/C runs as follows: under setting [1], 98 % of control; under setting [2], 104 % of control; under setting [3], 95 % of control.

For the compound `Cc1cccc(C)c1N1C(N)=NC(N)=NC1(C)C`, the T/C by setting is: under setting [17], 101 % of control; under setting [18], 93 % of control; under setting [19], 93 % of control.

Take `O=C(O)C(F)(F)F`: the T/C is 100 % of control under setting [8]; 102 % of control under setting [4]; 103 % of control under setting [9]; 96 % of control under setting [5]; 100 % of control under setting [15]; 102 % of control under setting [6].

As for `O=S(CC(O)(c1ccccc1)c1ccccc1)c1ccccc1` (configuration not stated), the T/C was 93 % of control under setting [13], 97 % of control under setting [14] and 97 % of control under setting [16].

Take `NCCCNC/C=C/CNCCCN`: the T/C is, setting by setting: (dose: 37.5 mg/kg/injection, schedule: Q01DX009 (ip), vehicle: saline) 98 % of control; (dose: 75.0 mg/kg/injection, schedule: Q01DX009 (ip), vehicle: saline) 101 % of control; (dose: 150.0 mg/kg/injection, schedule: Q01DX009 (ip), vehicle: saline) 101 % of control.

With `C#CC(C)(C)OC(O)C(Cl)(Cl)Cl` (configuration not stated), the T/C runs as follows: under setting [10], 91 % of control; under setting [11], 91 % of control; under setting [12], 106 % of control.

Regarding `CC(C)C(C)CCC(C)C1CCC2C3CC=C4CC(O)CCC4(C)C3CCC12C` (configuration not stated), the T/C (dose: 25.0 mg/kg/injection, schedule: Q01DX001 (ip), vehicle: saline with Tween-80) was 91 % of control; the T/C (dose: 50.0 mg/kg/injection, schedule: Q01DX001 (ip), vehicle: saline with Tween-80) was 94 % of control; the T/C under setting [1] was 97 % of control.

As to `CCOC(=O)C(CCC(O)C#N)(CC(C)=O)C(=O)OCC` (configuration not stated), where the note is “dose: 75.0 mg/kg/injection, schedule: Q01DX001 (ip), vehicle: saline”, the T/C was 100 % of control.

Take `CCCCCCCCCCCCCCCC(=O)N(CCCN(C)C)CCCN(CCCN(C)C)C(=O)CCCCCCCCCCCCCCC`: the T/C was 101 % of control (dose: 1.56 mg/kg/injection, schedule: Q01DX009 (ip), vehicle: water); 98 % of control (dose: 3.13 mg/kg/injection, schedule: Q01DX009 (ip), vehicle: water); 95 % of control (dose: 6.25 mg/kg/injection, schedule: Q01DX009 (ip), vehicle: water); 94 % of control and 95 % of control (dose: 12.5 mg/kg/injection, schedule: Q01DX009 (ip), vehicle: water); 95 % of control (dose: 25.0 mg/kg/injection, schedule: Q01DX009 (ip), vehicle: water).

Regarding `O=C(Cl)c1ccccc1Sc1ccccc1`, the T/C under setting [13] is 87 % of control.

On to `[CH3][Sn]([CH3])([Cl])[Cl]`, for which the T/C was 106 % of control (dose: 5.0 mg/kg/injection, schedule: Q01DX009 (ip), vehicle: saline); 98 % of control (dose: 10.0 mg/kg/injection, schedule: Q01DX009 (ip), vehicle: saline); 95 % of control (dose: 20.0 mg/kg/injection, schedule: Q01DX009 (ip), vehicle: saline).

Take `COc1cc[c-]cc1.[C-]#[O+].[C-]#[O+].[Fe+6].[c-]1[c-][c-][cH-][c-]1`: the T/C (dose: 50.0 mg/kg/injection, schedule: Q04DX002 (ip), vehicle: saline with Tween-80) was 102 % of control; the T/C under setting [10] is 102 % of control; the T/C under setting [11] is 97 % of control.

For the compound `C#CCOc1ccccc1O`, the T/C by setting is: (dose: 100.0 mg/kg/injection, schedule: Q04DX003 (ip), vehicle: acetone) 101 % of control; (dose: 200.0 mg/kg/injection, schedule: Q04DX003 (ip), vehicle: acetone) 103 % of control; (dose: 400.0 mg/kg/injection, schedule: Q04DX003 (ip), vehicle: acetone) 95 % of control.
